In publication PMC9940851, “Seleno Containing Compounds as Potent and Selective Antifungal Agents” (ACS Infectious Diseases, 2022):
Values after ≈ are worked out from the molar mass of the structure shown.

Assays:
[1] = system: T1, ATCC M. furfur 14521; assay: microbe, parasite or virus in culture; conditions: Malassezia furfur
T1 construct: ATCC 14521
Description: (§1) Inoculum preparations for antifungal assays were performed following the CLSI guidelines for antifungal susceptibility testing of yeasts.[31] Antifungal activity was evaluated on unicellular yeasts Candida albicans ATCC 10231, Candida glabrata ATCC 90030 (DSMZ 11226), Malassezia pachydermatis CDC 16334 (DSMZ 6172), Malassezia globosa ATCC MYA 4612, and Malassezia furfur ATCC 14521. All the fungal strains were stored at −80 °C in cryovials. Then Candida spp. and Malassezia pachydermatis were reactivated in RPMI 1640 broth for 24–48 h at 35 °C. The so obtained fresh cultures were streaked onto Sabouraud dextrose agar and incubated for 24–48 h at 35 °C. Malassezia globosa and furfur were reactivated in modified RPMI 1640 broth[32] for 24–48 h at 35 °C (M. furfur) and 33 °C (M. globosa), and then the cultures were streaked onto Leeming and Notman agar (MLNA) and incubated for 48–72 h at 35 °C for M. furfur and at 33 °C for M. globosa. The fungal inoculum for the testing was prepared by suspending in phosphate buffer (PB) 10 mM pH 7 4–5 colonies of about 1 mm diameter. The fungal suspension was then adjusted to a final optical density of 0.5 McFarland standard (1–5 × 10^6 cells/mL). The compound solutions were tested in a range of concentrations from 0.01 μg/mL to 256 μg/mL, and 50 μL were then added in 96 wells microtiter plates with 50 μL of fungal inoculum and incubated for 24–48 h at 35 °C. Growth and sterility controls were performed. […] Compounds 3a, 3c, 5b, 7a–d, 9c, 11e, 11i, and 14a,b were selected as representatives of the chemical moieties synthesized prior to their screen on yeasts of biomedical relevance such as M. pachydermatis DSMZ 6172, C. albicans ATCC 10231, and C. glabrata ATCC 90030 (DSMZ 11226) strains. The clinical used drugs Ketoconazole, SeS2, and Amphotericin B were included as references (Table 1).

[2] = system: T2, M. globosa ATCC MYA 4612; assay: microbe, parasite or virus in culture; conditions: Malassezia globosa
T2 construct: ATCC MYA 4612
Description: as §1

[3] = system: T3, M. pachydermatis DSMZ 6172; assay: microbe, parasite or virus in culture; parameters: broth microdilution MIC, M. pachydermatis and Candida, 35 °C; conditions: Malassezia pachydermatis, DSMZ6172
T3 construct: DSMZ 6172 (CDC 16334)
Description: as §1

[4] = system: C. albicans; assay: microbe, parasite or virus in culture; parameters: broth microdilution MIC, M. pachydermatis and Candida, 35 °C; conditions: Candida albicans
Description: as §1

[5] = system: T4, C. glabrata DSMZ 11226; assay: microbe, parasite or virus in culture; parameters: broth microdilution MIC, M. pachydermatis and Candida, 35 °C; conditions: Nakaseomyces glabratus, DSMZ11226
T4 construct: DSMZ 11226 (ATCC 90030)
Description: as §1

[6] = target: T5, MgCA (Malassezia globosa, UniProt A8Q1N3); assay: stopped-flow CO2 hydrase assay; format: biochemical
T5 construct: gene MGL_1814
T5 sequence (A8Q1N3 1-241): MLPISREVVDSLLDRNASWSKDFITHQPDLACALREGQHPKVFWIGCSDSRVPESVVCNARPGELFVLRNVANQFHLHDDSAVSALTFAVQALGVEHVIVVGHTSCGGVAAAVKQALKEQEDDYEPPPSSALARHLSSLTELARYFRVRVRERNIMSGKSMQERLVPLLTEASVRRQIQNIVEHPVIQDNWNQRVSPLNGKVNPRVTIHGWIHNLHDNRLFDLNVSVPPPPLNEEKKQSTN
How it was run: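 Recombinant carbonic anhydrase (5–12 nM) was preincubated with inhibitor for 15 min at room temperature. CO2 hydration (1.7–17 mM CO2) was then followed by stopped-flow using 0.2 mM phenol red at 557 nm in 20 mM Hepes pH 7.4 with 20 mM Na2SO4, over 10–100 s. Initial rates came from at least six traces, minus uncatalysed rates, and at least three determinations were averaged. Ki was obtained by nonlinear least-squares fitting with the Cheng-Prusoff equation.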

[7] = target: T6, MpaCA (Malassezia pachydermatis, UniProt A0A0M8MPA4); assay: stopped-flow CO2 hydrase assay; format: biochemical
T6 construct: gene Malapachy_3798
T6 sequence (A0A0M8MPA4 1-242): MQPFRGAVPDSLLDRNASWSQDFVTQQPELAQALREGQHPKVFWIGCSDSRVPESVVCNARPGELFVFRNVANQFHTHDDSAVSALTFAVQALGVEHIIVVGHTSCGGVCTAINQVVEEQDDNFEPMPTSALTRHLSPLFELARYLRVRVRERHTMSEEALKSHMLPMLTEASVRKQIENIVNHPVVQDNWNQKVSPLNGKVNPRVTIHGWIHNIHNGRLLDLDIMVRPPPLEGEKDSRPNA

[8] = target: T5, MgCA; assay: biochemical; parameters: stopped-flow CO2 hydration assay, phenol red absorbance at 557 nm, 15 min preincubation, Cheng-Prusoff KI
Description: Enzyme concentrations ranged between 5 and 12 nM. […] The presence of the sulfonamide moiety (i.e., either primary/secondary) within our scaffolds prompted us to investigate whether the compounds listed in this study were endowed with modulation features against the enzymatic metalloenzyme carbonic anhydrases (CAs, EC 4.2.1.1) expressed in Malassezia spp. of interest such as M. pachydermatis (MpaCA), M. globosa (MgCA), and M. restricta (MreCA). […] The obtained activities in Table 3 were all reported as KI values.

Row | Compound | MIC [1] [µg/mL] | MIC [2] [µg/mL] | MIC [3] [µg/mL] | MIC [4] [µg/mL] | MIC [5] [µg/mL] | Ki [6] [µM] | Ki [7] [µM] | Ki [8] [µM]
1 | CC(=O)N1CCN(c2ccc(OC[C@@H]3CO[C@@](Cn4ccnc4)(c4ccc(Cl)cc4Cl)O3)cc2)CC1 (racemic) [Ketoconazole] | 0.25 (≈ 0.47 µM) | 0.25 (≈ 0.47 µM) | 0.03 (≈ 0.0565 µM) | 0.05 ± 0.02 (≈ 0.0941 µM) | 96 ± 37 (≈ 181 µM) | – | – | –
2 | NS(=O)(=O)c1ccc(NC(=[Se])Nc2ccccc2)cc1 [3a] | 0.5 (≈ 1.41 µM) | 4.3 ± 1.97 (≈ 12.1 µM) | 0.5 (≈ 1.41 µM) | 64 (≈ 181 µM) | 10.7 (≈ 30.2 µM) | 0.599 | 0.514 | –
3 | NS(=O)(=O)c1ccc(NC(=[Se])Nc2ccccc2F)cc1 [3c] | 16 (≈ 43 µM) | > 256 | 64 (≈ 172 µM) | 341 (≈ 917 µM) | 64 (≈ 172 µM) | 0.721 | 0.152 | –
4 | NS(=O)(=O)c1ccc(CCNC(=[Se])Nc2ccccc2F)cc1 [5b] | 1 (≈ 2.5 µM) | 9 ± 5.9 (≈ 22.5 µM) | 0.25 (≈ 0.624 µM) | 107 (≈ 267 µM) | 3.3 (≈ 8.24 µM) | 0.633 | 0.149 | –
5 | NS(=O)(=O)c1ccc(NC(=[Se])NC(=O)c2ccccc2)cc1 [7a] | 0.85 ± 0.36 (≈ 2.22 µM) | 14.7 ± 3.26 (≈ 38.5 µM) | 0.5 (≈ 1.31 µM) | 128 (≈ 335 µM) | 32 (≈ 83.7 µM) | 3.85 | 44.8 | –
6 | NS(=O)(=O)c1ccc(NC(=[Se])NC(=O)c2ccc3c(c2)OCO3)cc1 [7b] | 0.5 (≈ 1.17 µM) | 16 ± 8.76 (≈ 37.5 µM) | 0.5 (≈ 1.17 µM) | 128 (≈ 300 µM) | 16 (≈ 37.5 µM) | 4.86 | 20.4 | –
7 | NS(=O)(=O)c1ccc(NC(=[Se])NC(=O)c2cc(Br)cc(OC(F)(F)F)c2)cc1 [7c] | 4 (≈ 7.34 µM) | 128 (≈ 235 µM) | 0.5 (≈ 0.917 µM) | 64 (≈ 117 µM) | 8 (≈ 14.7 µM) | 4.3 | 83.5 | –
8 | CC(=O)Oc1ccccc1C(=O)NC(=[Se])Nc1ccc(S(N)(=O)=O)cc1 [7d] | 2.7 ± 1.15 (≈ 6.13 µM) | 256 (≈ 581 µM) | 3.33 ± 1.15 (≈ 7.56 µM) | 128 (≈ 291 µM) | 64 (≈ 145 µM) | 5.88 | 66.8 | –
9 | NS(=O)(=O)c1ccc(CCNC(=[Se])NC(=O)c2ccc3c(c2)OCO3)cc1 [9c] | 2 ± 1.37 (≈ 4.4 µM) | 37.3 ± 13.1 (≈ 82.1 µM) | 1 (≈ 2.2 µM) | > 256 | > 256 | 1.78 | 55.9 | –
10 | CC(=O)Oc1ccccc1C(=O)NC(=[Se])Nc1cc(S(N)(=O)=O)ccc1O [11e] | 0.75 ± 0.67 (≈ 1.64 µM) | 6.7 ± 2.1 (≈ 14.7 µM) | 0.5 (≈ 1.1 µM) | 256 (≈ 561 µM) | 256 (≈ 561 µM) | 4.73 | 33.8 | –
11 | NS(=O)(=O)c1ccc(O)c(NC(=[Se])NC(=O)c2ccc(CCl)cc2)c1 [11h, 4-(Chloromethyl)-N-((2-hydroxy-5-sulfamoylphenyl)carbamoselenoyl)benzamide] | 74.7 ± 48.9 (≈ 167 µM) | > 256 | 4 (≈ 8.95 µM) | – | – | 6.49 | 76.6 | –
12 | NS(=O)(=O)c1ccc(O)c(NC(=[Se])NC(=O)c2cc(Br)cc(OC(F)(F)F)c2)c1 [11i] | 5 ± 2.45 (≈ 8.91 µM) | 64 (≈ 114 µM) | 0.5 (≈ 0.891 µM) | 64 (≈ 114 µM) | 32 (≈ 57 µM) | – | 12.7 | 6.25
13 | Cc1cccc(C(=O)NC(=[Se])Nc2cc(S(N)(=O)=O)ccc2O)c1 [11j] | 16 ± 8.76 (≈ 38.8 µM) | 128 (≈ 310 µM) | 0.5 (≈ 1.21 µM) | – | – | – | 14.8 | 5.64
14 | NS(=O)(=O)c1ccc(NC(=O)Nc2ccccc2F)cc1 [14a] | > 256 | > 256 | > 256 | > 256 | > 256 | – | 0.845 | 6.74
15 | NS(=O)(=O)c1ccc(NC(=S)Nc2ccccc2F)cc1 [14b] | > 256 | > 256 | > 256 | > 256 | > 256 | – | 0.488 | 5.49
16 | O=C(Nc1ccccc1)Nc1ccccc1F [14c] | > 256 | > 256 | > 256 | – | – | – | > 10 | > 10
17 | Fc1ccccc1NC(=S)Nc1ccccc1 [14d] | 128 (≈ 520 µM) | > 256 | > 256 | – | – | – | > 10 | > 10
18 | O=C(NC(=[Se])Nc1ccccc1)c1ccccc1 [16a] | 0.8 ± 0.6 (≈ 2.64 µM) | 29.3 ± 18.7 (≈ 96.6 µM) | 0.8 ± 0.29 (≈ 2.64 µM) | – | – | – | > 10 | > 10
19 | O=C(NC(=[Se])Nc1ccccc1)c1cc(Br)cc(OC(F)(F)F)c1 [16b] | 10.7 ± 4.62 (≈ 23 µM) | 341 ± 148 (≈ 732 µM) | 1 (≈ 2.15 µM) | – | – | – | > 10 | > 10
20 | O=C(NC(=[Se])Nc1ccccc1F)c1ccccc1 [16c] | 2 (≈ 6.23 µM) | 64 (≈ 199 µM) | 1 (≈ 3.11 µM) | – | – | – | > 10 | > 10
21 | O=C(NC(=[Se])Nc1c(F)c(F)cc(F)c1F)c1ccccc1 [16d] | 2.7 ± 1.15 (≈ 7.2 µM) | > 256 | 1 (≈ 2.67 µM) | – | – | – | > 10 | > 10
22 | C[C@@H]1[C@H](O)[C@@H](C)/C=C/C=C/C=C/C=C/C=C/C=C/C=C/[C@H](O[C@@H]2O[C@H](C)[C@@H](O)[C@H](N)[C@@H]2O)C[C@@H]2O[C@](O)(C[C@@H](O)C[C@@H](O)[C@H](O)CC[C@@H](O)C[C@@H](O)CC(=O)O[C@H]1C)C[C@H](O)[C@H]2C(=O)O [Amphotericin B] | 1.95 (≈ 2.11 µM) | 125 (≈ 135 µM) | 0.43 ± 0.12 (≈ 0.465 µM) | 0.24 ± 1 (≈ 0.26 µM) | 0.98 (≈ 1.06 µM) | – | – | –
23 | NS(=O)(=O)c1ccc(C[Se]c2ccc(NC(=[Se])NC(=O)c3cc(Br)cc(OC(F)(F)F)c3)cc2)cc1 [compound 12, 3-Bromo-N-((4-((4-sulfamoylbenzyl)selanyl)phenyl)carbamoselenoyl)-5-(trifluoromethoxy)benzamide] | 128 (≈ 179 µM) | 256 (≈ 358 µM) | 6.7 ± 2.3 (≈ 9.38 µM) | – | – | – | 71.6 | 1.76
